In US20110112121A1, “Pharmaceutical Compositions and Solid Forms” (priority 2009, published 2011):
Values joined by “and” are separate entries in the source; they are usually repeats but may differ in a detail not shown here. Identical values can stand only once.

What was measured:
[1] = Stability of crystal forms under ambient conditions; assay type: physicochemical
[2] = Solubility of the agent in hydrophilic and hydrophobic media; assay type: physicochemical; conditions: hydrophilic and hydrophobic media (aqueous and oily media)
[3] = test system: VEGF-induced extravasation; assay: Miles assay in domestic pigs; assay type: in vivo
Procedure: (§1) Vascular endothelial growth factors (VEGFs) have angiogenic and vascular permeability-promoting activities in vitro and in vivo. […] Young domestic pigs were used because pig skin is very similar to human skin in architecture and permeability for xenobiotics. Inhibition of dermal angiogenesis related to the agent of the invention was tested with an “matrigel” assay which was developed for studies in pigs; inhibition of vascular permeability in the skin with a modified Miles assay. With matrigel implants into which endothelial cells immigrate to form new vessels anti-angiogenic effects of applied test articles can be assessed in vivo; with the Miles assay, extravasation of Evans blue-labeled albumin is measured after VEGF-induced vascular leakage.
Method: Test areas of 5×20 cm on both paramedian ventral abdominal sides of 16-18 kg weighing domestic pigs were topically treated with 1 ml of 0.8% 6-(6-hydroxymethyl-pyrimidin-4-yloxy)-naphthalene-1-carboxylic acid (3-trifluoromethyl-phenyl)-amide trice (30, 7 and 3 hrs prior to elicitation of vascular leakage with VEGF). […] Evans blue was extracted from the biopsies with 0.5 ml formamide and the concentration of Evans blue in the supernatants was measured photometrically. […]

[4] = test system: dermal angiogenesis; assay: Matrigel assay in domestic pigs; assay type: in vivo
Procedure: as §1
Method: Test areas on both paramedian ventral abdominal sides of 16-18 kg weighing domestic pigs were topically treated with 0.5% 6-(6-hydroxymethyl-pyrimidin-4-yloxy)-naphthalene-1-carboxylic acid (3-trifluoromethyl-phenyl)-amide or the vehicle (ethanol/propylene glycol 3/7) alone. Treatment was performed twice daily on days 1-4. On day 2, 100 μl matrigel, loaded with the angiogenic factors […] VEGF-165 and 40 U/ml heparin were injected intradermally at 10 different sites of the treated areas. On day 5, the animals were sacrificed and 8 mm punches from the injection sites collected, the subcutaneous fatty tissue removed, the hemorrhagic plugs carefully dissected and weighed. Thereafter, the samples were digested with dispase and single cell suspensions prepared. The isolated cells were stained with the endothelial cell marker CD31 or isotype controls and analyzed with FACS after gating for endothelial cells.

[5] = 0.5% in ethanol:propylene glycol 3/7, topical twice daily days 1-4, plugs excised day 5

SMILES	stability of the modification (in words) [1]	solubility properties (in words) [2]	inhibition of VEGF-induced extravasation ([3]; 0.8% agent topically 30, 7 and 3 hrs before VEGF 165, vs placebo)	Evans blue concentration (μg/ml tissue extract) ([3]; 0.8% agent, 1 ml topically 30, 7 and 3 hrs before VEGF 165 injection, biopsies 30 min after challenge)	difference in CD31+ cell number vs vehicle-treated sites ([4]; 0.5% epicutaneously, gated on endothelial cells)	plug weight less than vehicle-treated sites ([4]; 0.5% epicutaneously, vs vehicle)	Cell counts (CD31+)/μl, gated on endothelial cells [4, 5]	Weight (mg) of excised plugs [4, 5]
O.O=C(Nc1cccc(C(F)(F)F)c1)c1cccc2cc(Oc3cc(CO)ncn3)ccc12.O=C(Nc1cccc(C(F)(F)F)c1)c1cccc2cc(Oc3cc(CO)ncn3)ccc12 [Crystal form B, 6-(6-Hydroxymethyl-pyrimidin-4-yloxy)-naphthalene-1-carboxylic acid (3-trifluoromethyl-phenyl)-amide hemihydrate, modification B]	particularly stable modification							
O=C(Nc1cccc(C(F)(F)F)c1)c1cccc2cc(Oc3cc(CO)ncn3)ccc12 [agent of the invention, 6-(6-hydroxymethyl-pyrimidin-4-yloxy)-naphthalene-1-carboxylic acid (3-trifluoromethyl-phenyl)-amide]		very poor solubility properties	24%	1.26 (0.13)++ μg/ml tissue extract	66%	19%	353 µL⁻¹	88 mg and 87.8 mg
